For the first experiment, the system named is Hedgehog pathway. Nature of the experiment: Hedgehog Pathway Cellular Differentiation Assay (alkaline phosphatase production in C3H10T1/2 cells with Shh ligand). It is filed as cell-based. Conditions: 3 μM compound, Shh ligand conditioned media, 72 h, alkaline phosphatase. The procedure, abridged:
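C3H10T1/2 cells in DMEM/2% FBS with Shh-conditioned medium were treated 72 h with compound, threefold dilutions from 30 μM to 3 nM. After RIPA lysis, alkaline phosphatase was read with pNp (1 mg/mL, diethanolamine pH 9.8) at 30 °C, absorbance 405 nm. Percent inhibition and IC50 came from absorbance.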
What is called % Inhibition is the relative decrease from the control value, in per cent. Higher therefore signals a response far below the control. On to `Cc1ccc(-c2ccc3cc[nH]c3n2)cc1NC(=O)c1ccc(OCc2ccccn2)cc1` [Example 3, N-[5-(5,7-diazabicyclo[4.3.0]nona-2,4,8,10-tetraen-4-yl)-2-methyl-phenyl]-4-(pyridin-2-ylmethoxy)benzamide], for which the “% Inhibition at 3 μM” value amounted to 67.3%.

The same experiment, now with this note: Mus musculus, C3H 10T1/2, 3 μM compound, Shh ligand conditioned media, 72 h, alkaline phosphatase.
For orientation: inhibition means the share of the control response that was lost under treatment. Low values mean a weak effect, high ones a strong effect. In the case of `Cc1ccc(-c2ccc(N)nn2)cc1NC(=O)c1ccc(OCc2ccccn2)cc1` [Example 15, N-[5-(6-aminopyridazin-3-yl)-2-methyl-phenyl]-4-(pyridin-2-ylmethoxy)benzamide], testing at 3 µM gave an inhibition of 80.7%.

As for `Cc1nc(-c2cc(NC(=O)c3ccc(OCc4ccccn4)cc3)c(C)cc2F)c[nH]1` [Example 103, N-[4-fluoro-2-methyl-5-(2-methyl-1H-imidazol-4-yl)phenyl]-4-(pyridin-2-ylmethoxy)benzamide], the inhibition at 3 µM is 85.6%.

`Cc1ccc(-c2nc(C3CC3)c[nH]2)cc1NC(=O)c1ccc(OCc2ccccn2)cc1` [Example 87, N-[5-(4-cyclopropyl-1H-imidazol-2-yl)-2-methylphenyl]-4-(pyridin-2-ylmethoxy)benzamide] gave an inhibition at 3 µM of 74.8%.

Consider `O=C(Nc1cc(-c2nc3ccccc3[nH]2)ccc1Cl)c1ccc(OCc2ccccn2)cc1` [Example 106, N-[5-(1H-benzimidazol-2-yl)-2-chlorophenyl]-4-(pyridin-2-ylmethoxy)benzamide], for which the inhibition at 3 µM is 81.6%.

Molecule `Cc1ccc(-c2ccccc2)cc1NC(=O)c1ccc(OCc2ccccn2)cc1` [Example 65, N-(2-methyl-5-phenyl-phenyl)-4-(pyridin-2-ylmethoxy)benzamide] gave an inhibition at 3 µM of 50%.

As to `Cc1ccc(-c2nc(CO)c[nH]2)cc1NC(=O)c1ccc(OCc2ccccn2)cc1` [Example 88, N-{5-[4-(hydroxymethyl)-1H-imidazol-2-yl]-2-methylphenyl}-4-(pyridin-2-ylmethoxy)benzamide], the inhibition at 3 µM is 84.7%.

The molecule `Cc1cc(C)c(-c2nc3ccccc3[nH]2)cc1NC(=O)c1ccc(OCc2ccccn2)cc1` [Example 68, N-[5-(1H-benzimidazol-2-yl)-2,4-dimethylphenyl]-4-(pyridin-2-ylmethoxy)benzamide] returned an inhibition at 3 µM of 83.3%.

Molecule `Cc1ccc(-c2ncc[nH]2)cc1NC(=O)c1ccc(OCC2CCCCN2)cc1` (stereo not drawn) [Example 142, N-(5-(1H-imidazol-2-yl)-2-methylphenyl)-4-(piperidin-2-ylmethoxy)benzamide] had an inhibition at 3 µM of 31.3%.

Turning to `Cc1ccc(-c2ncc[nH]2)cc1NC(=O)c1ccc(C(F)(F)F)nc1C` [Example 147, N-[5-(1H-imidazol-2-yl)-2-methyl-phenyl]-2-methyl-6-(trifluoromethyl)pyridine-3-carboxamide], the inhibition at 3 µM turned out to be 19.3%.

For the molecule `Cc1cnc(-c2ccc(C)c(NC(=O)c3ccc(OCc4ccccn4)cc3)c2)[nH]1` [Example 25, N-[2-methyl-5-(5-methyl-1H-imidazol-2-yl)phenyl]-4-(pyridin-2-ylmethoxy)benzamide], testing at 3 µM gave an inhibition of 79.5%.

The molecule `Cc1ccc(-c2ncc[nH]2)cc1NC(=O)c1ccc(OC(C)c2ccccn2)cc1` (stereo not drawn) [Example 110, N-[5-(1H-imidazol-2-yl)-2-methylphenyl]-4-(1-pyridin-2-ylethoxy)benzamide] gave an inhibition at 3 µM of 92.3%.

In the case of `Cc1ccc(-c2ncc[nH]2)cc1NC(=O)c1ccc(OCC2CCCCN2C(=O)OC(C)(C)C)cc1` (stereo not drawn) [Example 141, tert-butyl 2-((4-(5-(1H-imidazol-2-yl)-2-methylphenylcarbamoyl)phenoxy)methyl)piperidine-1-carboxylate], 3 µM produced 85.3% inhibition.

For the molecule `Cc1ccc(-c2cnc3ccccc3n2)cc1NC(=O)c1ccc(OCc2ccccn2)cc1` [Example 22, N-(2-methyl-5-quinoxalin-2-yl-phenyl)-4-(pyridin-2-ylmethoxy)benzamide], the inhibition at 3 µM came out at 60.7%.

As to `Cc1ccc(-c2ncc[nH]2)cc1NC(=O)c1ccc(OCc2ncccc2N2CCOCC2)cc1` [Example 137, N-(5-(1H-imidazol-2-yl)-2-methylphenyl)-4-((3-morpholinopyridin-2-yl)methoxy)benzamide], testing at 3 µM gave an inhibition of 76.5%.

In turn, `Cc1ccc(-c2ncc(CN3CCOCC3)s2)cc1NC(=O)c1ccc(OCc2ccccn2)cc1` [Example 12, N-[2-methyl-5-[5-(morpholin-4-ylmethyl)1,3-thiazol-2-yl]phenyl]-4-(pyridin-2-ylmethoxy)benzamide] returned an inhibition at 3 µM of 74.2%.

In turn, `Cc1ccc(-c2ncc[nH]2)cc1NC(=O)c1ccc(COc2ccccn2)cc1` [Example 134, N-[5-(1H-imidazol-2-yl)-2-methylphenyl]-4-[(pyridin-2-yloxy)methyl]benzamide] displayed an inhibition at 3 µM of 77.3%.

Regarding `Cc1ccc(-c2nc(-c3cccnc3)c[nH]2)cc1NC(=O)c1ccc(OCc2ccccn2)cc1` [Example 84, N-[2-methyl-5-(4-pyridin-3-yl-1H-imidazol-2-yl)phenyl]-4-(pyridin-2-ylmethoxy)benzamide], 3 µM produced 79.6% inhibition.

Molecule `Cc1cc(C)c(-c2cn(C)cn2)cc1NC(=O)c1ccc(OCc2ccccn2)cc1` [Example 71, N-[2,4-dimethyl-5-(1-methyl-1H-imidazol-4-yl)phenyl]-4-(pyridin-2-ylmethoxy)benzamide] gave an inhibition at 3 µM of 84.9%.

Turning to `Cc1ccc(-c2c[nH]cn2)cc1NC(=O)c1ccc(OCc2ccccn2)cc1` [Example 1, N-[5-(1H-imidazol-4-yl)-2-methyl-phenyl]-4-(pyridin-2-ylmethoxy)benzamide], at 3 µM the inhibition was 64.9%.

`Cc1cc(-c2nc3ccccc3[nH]2)ccc1NC(=O)c1ccc(OCc2ccccn2)cc1` [Example 31, N-[4-(1H-benzoimidazol-2-yl)-2-methyl-phenyl]-4-(pyridin-2-ylmethoxy)benzamide] came in with an inhibition at 3 µM of 27.9%.

On to `Cc1ccc(-c2ncc(CN3CCN(C)CC3)s2)cc1NC(=O)c1ccc(OCc2ccccn2)cc1` [Example 2, N-[2-methyl-5-[5-[(4-methylpiperazin-1-yl)methyl]1,3-thiazol-2-yl]phenyl]-4-(pyridin-2-ylmethoxy)benzamide], for which the inhibition at 3 µM is 72.3%.

`Cc1ccc(-c2[nH]cnc2C)cc1NC(=O)c1ccc(OCc2ccccn2)cc1` [Example 27, N-[2-methyl-5-(4-methyl-1H-imidazol-5-yl)phenyl]-4-(pyridin-2-ylmethoxy)benzamide] displayed an inhibition at 3 µM of 76.6%.

Take `Cc1ccc(-c2ncc[nH]2)cc1NC(=O)c1ccc(Oc2ccccc2)nc1` [Example 145, N-[5-(1H-imidazol-2-yl)-2-methyl-phenyl]-6-phenoxy-pyridine-3-carboxamide]: the inhibition at 3 µM was 67.1%.

The molecule `COc1cc(COc2ccc(C(=O)Nc3cc(-c4ncc(C)n4C)ccc3C)cc2)cc(OC)c1` [Example 48, 4-[(3,5-dimethoxyphenyl)methoxy]-N-[5-(1,5-dimethylimidazol-2-yl)-2-methyl-phenyl]benzamide] yielded an inhibition at 3 µM of 81.5%.

For `Cc1ccc(-c2cn3ccsc3n2)cc1NC(=O)c1ccc(OCc2ccccn2)cc1` [Example 5, N-[2-methyl-5-(4-thia-1,6-diazabicyclo[3.3.0]octa-2,5,7-trien-7-yl)phenyl]-4-(pyridin-2-ylmethoxy)benzamide], the inhibition at 3 µM came out at 68.8%.

The molecule `Cc1ccc(-c2ncc[nH]2)cc1NC(=O)c1ccc(OCc2cccc(OCCN(C)C)n2)cc1` [Example 124, N-(5-(1H-imidazol-2-yl)-2-methylphenyl)-4-((6-(2-(dimethylamino)ethoxy)pyridin-2-yl)methoxy)benzamide] gave an inhibition at 3 µM of 46.8%.

As for `Cc1ccc(-c2cn(C)cn2)cc1NC(=O)c1ccc(OCc2ccccc2C#N)cc1` [Example 53, 4-[(2-cyanophenyl)methoxy]-N-[2-methyl-5-(1-methylimidazol-4-yl)phenyl]benzamide], the inhibition at 3 µM was 80.4%.

Regarding `CCOC(=O)c1sc(-c2ccc(C)c(NC(=O)c3ccc(OCc4ccccn4)cc3)c2)nc1C` [Example 19, ethyl 4-methyl-2-[4-methyl-3-[[4-(pyridin-2-ylmethoxy)benzoyl]amino]phenyl]1,3-thiazole-5-carboxylate], testing at 3 µM gave an inhibition of 52%.

Take `COc1cccnc1COc1ccc(C(=O)Nc2cc(-c3ncc[nH]3)ccc2C)cc1` [Example 135, N-(5-(1H-imidazol-2-yl)-2-methylphenyl)-4-((3-methoxypyridin-2-yl)methoxy)benzamide]: the inhibition at 3 µM was 76.9%.

For the molecule `Cc1ccc(-c2ncc[nH]2)cc1NC(=O)c1ccc(/C=C/c2ccccn2)cc1` [Example 109, N-[5-(1H-imidazol-2-yl)-2-methylphenyl]-4-[(E)-2-pyridin-2-ylethenyl]benzamide], the inhibition at 3 µM came out at 91.3%.

The molecule `Cc1ccc(-c2cn(C)c(C)n2)cc1NC(=O)c1ccc(OCc2ccccn2)cc1` [Example 156, N-[5-(1,2-dimethyl-1H-imidazol-4-yl)-2-methylphenyl]-4-(pyridin-2-ylmethoxy)benzamide] registered an inhibition at 3 µM of 86.2%.

In turn, `Cc1ccc(-c2nc(-c3ccc(N4CCCC4)cc3)c[nH]2)cc1NC(=O)c1ccc(OCc2ccccn2)cc1` [Example 83, N-{2-methyl-5-[4-(4-pyrrolidin-1-ylphenyl)-1H-imidazol-2-yl]phenyl}-4-(pyridin-2-ylmethoxy)benzamide] came in with an inhibition at 3 µM of 15.1%.

In turn, `Cc1ccc(-c2ncc[nH]2)cc1NC(=O)c1ccc(OCc2ncccc2O)cc1` [Example 144, N-(5-(1H-imidazol-2-yl)-2-methylphenyl)-4-((3-hydroxypyridin-2-yl)methoxy)benzamide] had an inhibition at 3 µM of 8.8%.

On to `Cc1ccc(-c2nc(C(C)(C)C)c[nH]2)cc1NC(=O)c1ccc(OCc2ccccn2)cc1` [Example 86, N-[5-(4-tert-butyl-1H-imidazol-2-yl)-2-methylphenyl]-4-(pyridin-2-ylmethoxy)benzamide], for which testing at 3 µM gave an inhibition of 85.7%.

`Cc1ccc(-c2ncc[nH]2)cc1NC(=O)c1ccc(OCc2cccc(N3CCOCC3)n2)cc1` [Example 129, N-[5-(1H-imidazol-2-yl)-2-methylphenyl]-4-[(6-morpholin-4-ylpyridin-2-yl)methoxy]benzamide] showed an inhibition at 3 µM of 82.8%.

The values are drawn from patent publication US20100311748A1, “HETEROCYCLIC AMIDES USEFUL FOR THE TREATMENT OF CANCER AND PSORIASIS” (ASTRAZENECA AB, priority 2007, published 2010).
